# Measured values as given in publication PMC4578755, “Development of novel cellular histone-binding and chromatin-displacement assays for bromodomain drug discovery” (Epigenetics & Chromatin, 2015).
# Target: T1, TRIM24-PB chromatin binding in HeLa TRIM24-PB cells (Homo sapiens, UniProt O15164)
# T1 construct: The FLAG-TRIM24-PB construct (residues 810–1050) was generated by PCR amplification; expressed in transfected cells
# T1 sequence (O15164 810-1050): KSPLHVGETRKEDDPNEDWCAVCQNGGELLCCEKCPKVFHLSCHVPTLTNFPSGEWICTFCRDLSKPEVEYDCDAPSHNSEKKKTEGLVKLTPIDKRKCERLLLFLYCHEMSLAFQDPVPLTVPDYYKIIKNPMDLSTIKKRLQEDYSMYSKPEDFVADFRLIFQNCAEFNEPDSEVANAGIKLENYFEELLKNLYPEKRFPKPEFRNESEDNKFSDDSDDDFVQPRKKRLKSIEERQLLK
# Test: In situ cell extraction with IF in HeLa TRIM24-PB cells
# Type: cell-based
# Procedure: OV90 or HeLa cells (20,000 cells/100 µL) were seeded into 96-well plates (Corning Costar #3603) using RPMI or DMEM medium, respectively, supplemented with 10 % FBS and grown overnight. Test agents were serially diluted in DMSO (with or without SAHA) to generate 10X master compound plates. From here, 11 µL was transferred into each well containing 100 µL of growth media followed by shaking on a rotation table (15 min, 300 rpm at RT) and incubation at 37 °C for 2 h. Plates were washed once with PBS (150 µL/well) and then with cold, freshly prepared Cytoskeleton (CSK) Buffer (10 mM PIPES, 300 mM Sucrose, 100 mM NaCl, 3 mM MgCl2; pH = 6.8). Immediately thereafter, soluble, non-chromatin-bound proteins were extracted by addition of cold CSK Buffer supplemented with 0.5 % Triton X-100 (150 µL per well) for 10 min at 4 °C followed by 4 % paraformaldehyde fixation (10 min at RT) (Additional file 1: Table S3).
# Standard IF procedures were used. Briefly, cells were permeabilized (0.5 % Triton X-100 in PBS) for 15 min and incubated with blocking solution (DAKO #X0909) for 30 min. The following primary antibodies were used: goat anti-V5 (Bethyl #A190-119A) 1:200; mouse anti-FLAG (Sigma #F1804) 1:200; rabbit anti-BRD4 (Abcam #ab128874) 1:200; rabbit anti-TRIM24 (Proteintech #14208-1-AP) 1:400; rabbit anti-K3K23Ac (Cell Signaling #8848) 1:200, and mouse anti-histone H3 (Active Motif #39763) 1:4000. Alexa Fluor-conjugated secondary antibodies were from Invitrogen and Hoechst 33342 (Invitrogen, #H3570) was used for nuclei counterstaining (10 µg/ml). For each Alexa fluorochrome, images (4–10 fields per well; 20X magnifications) were acquired using the Operetta High-Content Screening System (PerkinElmer). Image analysis was performed in Harmony software (PerkinElmer) by selecting nuclei and cytoplasm in Hoechst channel. Gating for single cells of flat morphology was done based on nuclei area, roundness and intensity of Hoechst in the nucleus and in the cytoplasm. In every gated cell, the mean signal intensity value for each fluorochrome was calculated separately in nucleus and cytoplasm. The specific nuclear signal was estimated subtracting mean cytoplasmic value from nuclear; and average value was calculated using at least 1000 cells in each well.
# Supplemental Table S3 (Zhan et al.)
# Table S3. In Situ Cell Extraction Procedure (IF)
# Step Parameter Solution Volume Time Temp (°C)
# Seed cells DMEM supplemented with 10 % FBS 37°C,
# 2 SAHA treatment SAHA (50 µM) in DMEM with 10% FBS 12 µL 2h 37°C,
# 3 Prepare Master 100X final concentration in assay 30 µL […]
# Image analysis: The analysis was performed in Harmony (PerkinElmer) software by selecting nuclei and cytoplasm in Hoechst 33342 channel . […] For each channel “mean nuclear signal“ was calculated as “mean […]
SAHA-induced TRIM24-PB chromatin binding (assay window) (anti-FLAG antibody),SAHA-induced TRIM24-PB chromatin binding (assay window) (anti-TRIM24 antibody),Time to displacement of TRIM24-PB from chromatin (HeLa TRIM24-PB) [min],"IF signal of chromatin-bound TRIM24-PB (HeLa TRIM24-PB with SAHA, anti-FLAG and anti-TRIM24 antibodies, 2 h)",SMILES
fivefold,twofold,–,–,"O=C(CCCCCCC(=O)Nc1ccccc1)NO [SAHA, Suberoylanilide Hydroxamic Acid]"
–,–,≤ 5,reducing the IF signal to baseline,"Cc1nc(S(=O)(=O)Nc2cc3c(cc2Oc2cccc(OCC(C)C)c2)n(C)c(=O)n3C)cn1C [IACS-6558, N-{1,3-dimethyl-6-[3-(2-methylpropoxy)phenoxy]-2-oxo-2,3-dihydro-1H-1,3-benzodiazol-5-yl}-1,2-dimethyl-1H-imidazole-4-sulfonamide]"
